# Publication PMC10247892 (Biomedicine & Pharmacotherapy, 2023)
# How the values were obtained:
# SARS-CoV-2 D614G = test: SARS-CoV-2 antiviral activity in a human nasal epithelial model; assay type: cell-based; conditions: HNE model
# SARS-CoV-2 = SARS-CoV-2 replication on Calu-3 cells; assay type: cell-based; conditions: non-cytotoxic concentrations
# [1] = system: wildtype SARS-CoV-2 virus (D614G variant); set-up: species or system golden Syrian hamsters; conditions: hamster, in vivo
molecule,measurement,setting,value
CCC(CC)COC(=O)[C@H](C)N[P@](=O)(OC[C@H]1O[C@@](C#N)(c2ccc3c(N)ncnn23)[C@H](O)[C@@H]1O)Oc1ccccc1 [Remdesivir],Effect on viral replication (in words),SARS-CoV-2 D614G; drug in the basal medium,completely blocked it
"OC[C@H]1O[C@@H]2O[C@H]3[C@H](O)[C@@H](O)[C@@H](O[C@H]4[C@H](O)[C@@H](O)[C@@H](O[C@H]5[C@H](O)[C@@H](O)[C@@H](O[C@H]6[C@H](O)[C@@H](O)[C@@H](O[C@H]7[C@H](O)[C@@H](O)[C@@H](O[C@H]8[C@H](O)[C@@H](O)[C@@H](O[C@H]1[C@H](O)[C@H]2O)O[C@@H]8CO)O[C@@H]7CO)O[C@@H]6CO)O[C@@H]5CO)O[C@@H]4CO)O[C@@H]3CO [β-CD, ß-Cyclodextrin]",Inhibition of SARS-CoV-2 viral activity (in words),SARS-CoV-2; D614G variant,inhibited the SARS-CoV-2 viral activity
same,Inhibition of SARS-CoV-2 viral activity (in words),SARS-CoV-2; Omicron BA.1 variant,inhibited the SARS-CoV-2 viral activity
Methyl-β-cyclodextrin [MβCD],Prophylactic effect (in words),[1],less potent prophylactic effect
same,Reduction of viral replication,SARS-CoV-2 D614G; 2.5 mM constantly in the basal side,11%
same,Reduction of viral replication,"SARS-CoV-2 D614G; 2.5 mM on the apical side (initial addition), 48 h pi",74%
